Data on 29 compounds can be found in patent publication US20250206730A1 (AUTOTELIC BIO INC., priority 2022, published 2025).

Where only a bound is given, the exact number is not on record here.

In one test the test system is TGF-β signaling. As to the kind of experiment: Assay for evaluating cellular inhibition of TGF-β signaling, 4T1 (SBE-luc2P) luciferase reporter. The class given is cell-based. As to conditions: Mus musculus, 4T1, 4T1 (SBE-luc2P) transient pool, 0.2% FBS, 2 h pre-treatment, TGF-β1 2 ng/mL 24 h; read-out: IC50 4T1 Cell. The method, boiled down: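 4T1 cells transiently carrying SBE-luc2P (6×10^3/well, 0.2% FBS, ~60% confluence) or HEK293 SBE-reporter stable cells (2.5×10^4/well, 0.5% FBS, ~80% confluence) pre-treated with compound for 2 h. TGF-β1 (2 ng/mL) then added for 24 h at 37 °C; luciferase luminescence read from lysates.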
In general terms: A reporter such as luciferase makes a cellular process visible.

The target in a further test is T1, ALK5 kinase (Homo sapiens, UniProt P36897).
T1 sequence (P36897 34-503): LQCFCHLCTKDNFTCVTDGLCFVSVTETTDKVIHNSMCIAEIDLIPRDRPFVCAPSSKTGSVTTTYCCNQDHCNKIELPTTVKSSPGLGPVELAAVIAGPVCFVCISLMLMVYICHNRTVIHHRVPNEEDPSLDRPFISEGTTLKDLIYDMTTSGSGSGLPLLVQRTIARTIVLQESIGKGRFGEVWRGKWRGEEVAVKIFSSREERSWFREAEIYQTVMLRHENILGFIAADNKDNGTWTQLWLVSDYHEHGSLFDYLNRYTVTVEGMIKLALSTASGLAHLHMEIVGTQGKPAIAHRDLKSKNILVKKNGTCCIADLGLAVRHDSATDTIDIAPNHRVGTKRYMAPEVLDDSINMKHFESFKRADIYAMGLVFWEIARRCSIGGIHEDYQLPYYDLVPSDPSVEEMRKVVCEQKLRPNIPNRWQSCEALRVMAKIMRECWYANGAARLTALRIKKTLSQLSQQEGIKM
As to the kind of experiment: LanthaScreen Eu Kinase Binding Assay. Conditions: Kinase Tracer 178, Eu-anti-GST Antibody, read-out: IC50 Enzyme. The procedure, abridged:
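Compound (1% DMSO final) preincubated 30 min at RT with GST-tagged ALK5, then Eu-anti-GST antibody and Kinase Tracer 178 added for 60 min at RT. TR-FRET read at 340 nm excitation; 665/615 nm emission ratio falls as compound binding rises.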
A general note: In TR-FRET formats the signal depends on donor and acceptor labels being close together.

A word on the IC50: it is the concentration at which inhibition is half-maximal. As for `Cc1nc(-c2ccccc2)c(Oc2ccnc(Nc3cccc(NS(C)(=O)=O)c3)c2)s1` [A-71, N-(3-((4-((2-Methyl-4-phenylthiazol-5-yl)oxy)pyridin-2-yl)amino)phenyl)methanesulfonamide], the IC50 in the test with TGF-β signaling and at ALK5 kinase was below 100 nM throughout.
Consider `Cc1nc(-c2ccccc2)c(Oc2ccnc(Nc3cccc(C(=O)O)c3)c2)s1` [A-109, 3-((4-((2-Methyl-4-phenylthiazol-5-yl)oxy)pyridin-2-yl)amino)benzoic acid], for which the results for the IC50 in the test with TGF-β signaling and at ALK5 kinase were above 100 nM and below 100 nM, respectively.
The corresponding values for `CCc1nc(-c2cccc(C)n2)c(Oc2ccnc(Nc3cccc(C(N)=O)c3)c2)s1` [A-258, 3-((4-((2-Ethyl-4-(6-methylpyridin-2-yl)thiazol-5-yl)oxy)pyridin-2-yl)amino)benzamide] are below 100 nM and below 100 nM.
For `CNc1nc(-c2ccccc2)c(Oc2ccnc(Nc3cccc(S(N)(=O)=O)c3)c2)s1` [A-51, 3-((4-((2-(Methylamino)-4-phenylthiazol-5-yl)oxy)pyridin-2-yl)amino)benzenesulfonamide], the IC50 in the test on TGF-β signaling and at ALK5 kinase was below 100 nM in each case.
`CCc1nc(-c2cccc(C)n2)c(Oc2ccnc(Nc3cccc(C(=O)O)c3)c2)s1` [A-257, 3-((4-((2-Ethyl-4-(6-methylpyridin-2-yl)thiazol-5-yl)oxy)pyridin-2-yl)amino)benzoic acid]: the IC50 in the test on TGF-β signaling and on ALK5 kinase was below 100 nM each time.
As for `CS(=O)(=O)NC(=O)c1ccc(Nc2cc(Oc3sc(C4CC4)nc3-c3ccccc3)ccn2)nc1` [A-140, 6-((4-((2-Cyclopropyl-4-phenylthiazol-5-yl)oxy)pyridin-2-yl)amino)-N-(methylsulfonyl)nicotinamide], the IC50 is above 100 nM in the test on TGF-β signaling and below 100 nM on ALK5 kinase.
For `O=C(O)c1ccc(Nc2cc(Oc3sc(C(F)(F)F)nc3-c3ccccc3)ccn2)cc1` [A-152, 4-((4-((4-Phenyl-2-(trifluoromethyl)thiazol-5-yl)oxy)pyridin-2-yl)amino)benzoic acid], in that order: below 100 nM and below 100 nM.
With `CN(C)c1nc(-c2ccccc2)c(Oc2ccnc(Nc3cccc(C(C)(C)O)c3)c2)s1` [A-153, 2-(3-((4-((2-(Dimethylamino)-4-phenylthiazol-5-yl)oxy)pyridin-2-yl)amino)phenyl)propan-2-ol], the figures for the IC50 with TGF-β signaling and on ALK5 kinase were above 100 nM and below 100 nM, respectively.
Consider `Cc1nc(-c2ccccc2)c(Oc2ccnc(Nc3cccc(C(N)=O)c3)c2)s1` [A-60, 3-((4-((2-Methyl-4-phenylthiazol-5-yl)oxy)pyridin-2-yl)amino)benzamide], for which the IC50 in the test on TGF-β signaling and at ALK5 kinase was below 100 nM in each case.
For `Cc1nc(-c2ccccc2)c(Oc2ccnc(Nc3ccc(N4CCNCC4)cc3)c2)s1` [A-104, 4-((2-Methyl-4-phenylthiazol-5-yl)oxy)-N-(4-(piperazin-1-yl)phenyl)pyridin-2-amine], the IC50 in the test with TGF-β signaling and on ALK5 kinase was below 100 nM in each case.
In the case of `O=C(NO)c1ccc(Nc2cc(Oc3sc(C4CC4)nc3-c3ccccc3)ccn2)nc1` [A-138, 6-((4-((2-Cyclopropyl-4-phenylthiazol-5-yl)oxy)pyridin-2-yl)amino)-N-hydroxynicotinamide], the IC50 in the test with TGF-β signaling and on ALK5 kinase was below 100 nM throughout.
Regarding `CC(C)c1nc(-c2ccccc2)c(Oc2ccnc(Nc3ccc(C(N)=O)cc3)c2)s1` [A-222, 4-((4-((2-Isopropyl-4-phenylthiazol-5-yl)oxy)pyridin-2-yl)amino)benzamide], the IC50 with TGF-β signaling and at ALK5 kinase was above 100 nM each time.
As to `CCc1nc(-c2cccc(C)n2)c(Oc2ccnc(Nc3cc(C(=O)O)ccn3)c2)s1` [A-266, 2-((4-((2-Ethyl-4-(6-methylpyridin-2-yl)thiazol-5-yl)oxy)pyridin-2-yl)amino)isonicotinic acid], the values for the IC50 in the test with TGF-β signaling and at ALK5 kinase were above 100 nM and below 100 nM, respectively.
Take `CCc1nc(-c2ccccc2)c(Oc2ccnc(Nc3ccnc(C(C)(C)O)c3)c2)s1` [A-186, 2-(4-((4-((2-Ethyl-4-phenylthiazol-5-yl)oxy)pyridin-2-yl)amino)pyridin-2-yl)propan-2-ol]: the IC50 in the test on TGF-β signaling and at ALK5 kinase was below 100 nM throughout.
For the compound `CC(C)c1nc(-c2ccccc2)c(Oc2ccnc(Nc3cccc(C(=O)O)n3)c2)s1` [A-217, 6-((4-((2-Isopropyl-4-phenylthiazol-5-yl)oxy)pyridin-2-yl)amino)picolinic acid], the IC50 in the test with TGF-β signaling and on ALK5 kinase was above 100 nM each time.
Regarding `COc1nc(-c2ccccc2)c(Oc2ccnc(Nc3cccc(S(N)(=O)=O)c3)c2)s1` [A-142, 3-((4-((2-Methoxy-4-phenylthiazol-5-yl)oxy)pyridin-2-yl)amino)benzenesulfonamide], the values for the IC50 in the test on TGF-β signaling and on ALK5 kinase were above 100 nM and below 100 nM, respectively.
For `CNC(=O)c1ccc(Nc2cc(Oc3sc(C(F)(F)F)nc3-c3ccccc3)ccn2)cc1` [A-148, N-Methyl-4-((4-((4-phenyl-2-(trifluoromethyl)thiazol-5-yl)oxy)pyridin-2-yl)amino)benzamide], the IC50 in the test on TGF-β signaling and at ALK5 kinase was below 100 nM each time.
As for `CCc1nc(-c2cccc(C)n2)c(Oc2ccnc(Nc3cccc(C(=O)NC)c3)c2)s1` [A-259, 3-((4-((2-Ethyl-4-(6-methylpyridin-2-yl)thiazol-5-yl)oxy)pyridin-2-yl)amino)-N-methylbenzamide], the IC50 with TGF-β signaling and at ALK5 kinase was below 100 nM in each case.
`CC(C)c1nc(-c2ccccc2)c(Oc2ccnc(Nc3ccnc(C(C)(C)O)c3)c2)s1` [A-223, 2-(4-((4-((2-Isopropyl-4-phenylthiazol-5-yl)oxy)pyridin-2-yl)amino)pyridin-2-yl)propan-2-ol]: the IC50 in the test with TGF-β signaling is above 100 nM; at ALK5 kinase, below 100 nM.
For the compound `CCc1nc(-c2cccc(C)n2)c(Oc2ccnc(Nc3cncc(C(N)=O)c3)c2)s1` [A-261, 5-((4-((2-Ethyl-4-(6-methylpyridin-2-yl)thiazol-5-yl)oxy)pyridin-2-yl)amino)nicotinamide], the IC50 with TGF-β signaling and at ALK5 kinase was below 100 nM each time.
Consider `CNc1nc(-c2ccccc2)c(Oc2ccnc(Nc3cccc(C(N)=O)c3)c2)s1` [A-52, 3-((4-((2-(Methylamino)-4-phenylthiazol-5-yl)oxy)pyridin-2-yl)amino)benzamide], for which the IC50 in the test on TGF-β signaling was above 100 nM; on ALK5 kinase it was below 100 nM.
The corresponding values for `CN(C)c1nc(-c2ccccc2)c(Oc2ccnc(Nc3cccc(C(N)=O)c3)c2)s1` [A-155, 3-((4-((2-(Dimethylamino)-4-phenylthiazol-5-yl)oxy)pyridin-2-yl)amino)benzamide] are below 100 nM and below 100 nM.
For `Cc1cccc(-c2nc(C(C)C)sc2Oc2ccnc(Nc3cccc(S(N)(=O)=O)c3)c2)n1` [A-287, 3-((4-((2-Isopropyl-4-(6-methylpyridin-2-yl)thiazol-5-yl)oxy)pyridin-2-yl)amino)benzenesulfonamide], in that order: below 100 nM and below 100 nM.
As for `NC(=O)c1cccc(Nc2cc(Oc3sc(C4CC4)nc3-c3ccccc3)ccn2)c1` [A-117, 3-((4-((2-Cyclopropyl-4-phenylthiazol-5-yl)oxy)pyridin-2-yl)amino)benzamide], the IC50 with TGF-β signaling and on ALK5 kinase was below 100 nM throughout.
Turning to `Cc1cccc(-c2nc(N)sc2Oc2ccnc(Nc3ccc(C(=O)O)cc3)c2)n1` [A-248, 4-((4-((2-Amino-4-(6-methylpyridin-2-yl)thiazol-5-yl)oxy)pyridin-2-yl)amino)benzoic acid], the IC50 in the test on TGF-β signaling was above 100 nM; on ALK5 kinase, below 100 nM.
As for `Nc1nc(-c2ccccc2)c(Oc2ccnc(Nc3cccc(S(N)(=O)=O)c3)c2)s1` [A-1, 3-((4-((2-Amino-4-phenylthiazol-5-yl)oxy)pyridin-2-yl)amino)benzenesulfonamide], the IC50 with TGF-β signaling and on ALK5 kinase was below 100 nM throughout.
With `Cc1nc(-c2ccccc2)c(Oc2ccnc(Nc3cccc(C(C)(C)C(=O)O)c3)c2)s1` [A-66, 2-Methyl-2-(3-((4-((2-methyl-4-phenylthiazol-5-yl)oxy)pyridin-2-yl)amino)phenyl)propanoic acid], the IC50 in the test on TGF-β signaling and on ALK5 kinase was below 100 nM throughout.
As for `CN(C)c1nc(-c2ccccc2)c(Oc2ccnc(Nc3ccc(C(N)=O)cn3)c2)s1` [A-163, 6-((4-((2-(Dimethylamino)-4-phenylthiazol-5-yl)oxy)pyridin-2-yl)amino)nicotinamide], the IC50 with TGF-β signaling and at ALK5 kinase was below 100 nM in each case.
With `CC(C)(O)c1cc(Nc2cc(Oc3sc(C4CC4)nc3-c3ccccc3)ccn2)ccn1` [A-120, 2-(4-((4-((2-Cyclopropyl-4-phenylthiazol-5-yl)oxy)pyridin-2-yl)amino)pyridin-2-yl)propan-2-ol], the values for the IC50 with TGF-β signaling and on ALK5 kinase were above 100 nM and below 100 nM, respectively.
